{"source": "BindingDB's records for PubMed 31931340", "about": "(n/a, 2020)", "biological_target": "PIK3CA", "experiment": "Inhibition of human P13Kalpha", "data": [{"smiles": "CN(c1nc(-c2cnc(N)nc2)nc(N2CCOCC2)n1)C1CCN(C(=O)c2ccccc2)CC1", "values": [{"measurement": "IC50", "result": 0.015, "unit": "µM"}]}]}
